Data set [1] deals with T1, full-length beta-Catenin (Uniprot ID P35222) (Homo sapiens, UniProt P35222).
T1 construct: 10 nM full-length beta-Catenin (Uniprot ID P35222)
T1 sequence (P35222 1-781): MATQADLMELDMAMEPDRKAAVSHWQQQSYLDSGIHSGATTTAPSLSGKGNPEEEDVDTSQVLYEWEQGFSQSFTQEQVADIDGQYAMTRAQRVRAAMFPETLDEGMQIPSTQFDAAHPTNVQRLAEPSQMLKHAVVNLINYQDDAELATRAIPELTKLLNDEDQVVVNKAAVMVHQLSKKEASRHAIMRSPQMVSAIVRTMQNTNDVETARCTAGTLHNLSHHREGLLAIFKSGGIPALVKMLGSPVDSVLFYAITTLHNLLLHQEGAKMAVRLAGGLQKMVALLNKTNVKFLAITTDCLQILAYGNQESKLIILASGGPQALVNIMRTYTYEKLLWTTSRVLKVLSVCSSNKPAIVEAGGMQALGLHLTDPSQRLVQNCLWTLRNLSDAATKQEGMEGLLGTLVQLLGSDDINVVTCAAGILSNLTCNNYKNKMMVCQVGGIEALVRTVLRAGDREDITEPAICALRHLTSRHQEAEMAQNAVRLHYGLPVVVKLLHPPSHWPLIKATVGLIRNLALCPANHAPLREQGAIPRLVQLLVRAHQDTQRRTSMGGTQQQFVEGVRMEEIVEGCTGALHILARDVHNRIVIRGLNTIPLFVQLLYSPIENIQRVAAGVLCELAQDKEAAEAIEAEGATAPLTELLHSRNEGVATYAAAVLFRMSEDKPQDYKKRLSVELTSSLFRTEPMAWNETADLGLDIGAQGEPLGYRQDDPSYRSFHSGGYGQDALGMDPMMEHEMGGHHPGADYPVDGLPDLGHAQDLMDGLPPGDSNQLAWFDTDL
In words: Fluorescence polarization IC50 (beta-catenin / 5FAM-TCF4 10-53 competition). The format is binding. Background: Polarisation of emitted light reports the rotation of a fluorescent probe.

The nature of another data set: CHI Log D procedure. The format is physicochemical. To be noted: pH 7.4.
The next data set in a line: Solubility in PBS. The format is physicochemical. The gist of the method: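 HPLC quantitation of peptide remaining in the PBS supernatant after ultracentrifugation, referenced to a 50 μM solution in DMSO.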
Setting [2] is: fluorescence polarization, read-out: beta-Catenin FP IC50.

SMILES strings stand for the structures. Converted amounts (≈) assume the structure as drawn. Where two headings read alike, the source gives them in different places.

One may read the Solubility as how much of the substance goes into solution per volume. Read a low Solubility as little dissolved substance. Turning to `CC[C@H](C)[C@@H]1NC(=O)[C@H](CC(=O)O)NC(=O)[C@]2(CC=CCCCC3(CCCC=CCCCCCC[C@@](C)(C(=O)N[C@@H](Cc4ccccc4)C(=O)N[C@@H](Cc4csc5ccccc45)C(=O)N[C@@H](CCC(N)=O)C(N)=O)NC(=O)[C@H](CCC(N)=O)NC(=O)[C@H](Cc4ccccc4)NC(=O)[C@H](C)NC(=O)[C@H](CC(C)C)NC(=O)[C@H](CCC(=O)O)NC(=O)[C@H](CC(=O)O)NC3=O)NC1=O)CCCN2C(C)=O` (stereo partly drawn) [I-647, Ac-PL3-Asp-Ile-B5-Asp-Glu-Leu-Ala-Phe-Gln-S8-Phe-BztA-Gln-NH2], the IC50 in data set [1] (setting [2]) and in data set [1] (read-out: FP EC50) was 0.445 µM throughout. Also, the “CHI Log D” value in the data set “CHI Log D procedure” is 2.677. Further, in the data set “Solubility in PBS”, the “Solubility” value came out at 50 µM (≈ 96.3 µg/mL).
For `CC[C@H](C)[C@@H]1NC(=O)[C@H](CC(=O)O)NC(=O)[C@]2(CC=CCCCC3(CCCC=CCCCCCC[C@@](C)(C(=O)N[C@@H](Cc4ccccc4)C(=O)N[C@@H](Cc4csc5ccccc45)C(=O)N[C@@H](CCC(N)=O)C(N)=O)NC(=O)[C@H](CCC(N)=O)NC(=O)[C@H](Cc4ccccc4)NC(=O)[C@H](C)NC(=O)[C@H](CC(C)C)NC(=O)[C@H](CCC(=O)O)NC(=O)[C@H](CC(=O)O)NC3=O)NC1=O)CCCN2C(C)=O` (stereo partly drawn) [I-648, Ac-PL3-Asp-Ile-B5-Asp-Glu-Leu-Ala-Phe-Gln-S8-Phe-BztA-Gln-NH2], the IC50 in data set [1] (setting [2]) and in data set [1] (read-out: FP EC50) was 0.233 µM in each case. Also, the “CHI Log D” value in the data set “CHI Log D procedure” turned out to be 2.721. Moreover, in “Solubility in PBS”, the “Solubility” value was 46 µM (≈ 88.6 µg/mL).
Regarding `CC[C@H](C)[C@@H]1NC(=O)[C@H](CC(=O)O)NC(=O)[C@]2(CC=CCCCC3(CCCC=CCCCCCC[C@@](C)(C(=O)N[C@@H](Cc4ccccc4)C(=O)N[C@@H](Cc4csc5ccccc45)C(=O)N[C@@H](CCC(N)=O)C(N)=O)NC(=O)[C@H](CCC(N)=O)NC(=O)[C@H](Cc4ccccc4)NC(=O)[C@H](C)NC(=O)[C@H](Cc4ccccc4)NC(=O)[C@H](CCC(=O)O)NC(=O)[C@H](CC(=O)O)NC3=O)NC1=O)CCCN2C(C)=O` (stereo partly drawn) [I-649, Ac-PL3-Asp-Ile-B5-Asp-Glu-Phe-Ala-Phe-Gln-S8-Phe-BztA-Gln-NH2], the IC50 in data set [1] (setting [2]) and in data set [1] (read-out: FP EC50) was 0.209 µM each time. Besides, the “CHI Log D” value in “CHI Log D procedure” came to 2.677. Further, the “Solubility” value in the data set “Solubility in PBS” amounted to 41 µM (≈ 80.3 µg/mL).
Consider `CC[C@H](C)[C@@H]1NC(=O)[C@H](CC(=O)O)NC(=O)[C@]2(CC=CCCCC3(CCCC=CCCCCCC[C@@](C)(C(=O)N[C@@H](Cc4ccccc4)C(=O)N[C@@H](Cc4csc5ccccc45)C(=O)N[C@@H](CCC(N)=O)C(N)=O)NC(=O)[C@H](CCC(N)=O)NC(=O)[C@H](Cc4ccccc4)NC(=O)[C@H](C)NC(=O)[C@H](Cc4ccccc4)NC(=O)[C@H](CCC(=O)O)NC(=O)[C@H](CC(=O)O)NC3=O)NC1=O)CCCN2C(C)=O` (stereo partly drawn) [I-650, Ac-PL3-Asp-Ile-B5-Asp-Glu-Phe-Ala-Phe-Gln-S8-Phe-BztA-Gln-NH2], for which the IC50 in data set [1] (setting [2]) and in data set [1] (read-out: FP EC50) was 0.137 µM each time. In the data set “CHI Log D procedure”, the “CHI Log D” value came out at 2.718. Besides, the “Solubility” value in “Solubility in PBS” is 45 µM (≈ 88.2 µg/mL).
Regarding `CC[C@H](C)[C@@H]1NC(=O)[C@H](CC(=O)O)NC(=O)[C@]2(CC=CCCCC3(CCCC=CCCCCCC[C@@](C)(C(=O)N[C@@H](Cc4ccccc4)C(=O)N[C@@H](Cc4csc5ccccc45)C(=O)N[C@@H](CCC(N)=O)C(N)=O)NC(=O)[C@H](CCC(N)=O)NC(=O)[C@H](Cc4ccccc4)NC(=O)[C@H](C)NC(=O)[C@H](CO)NC(=O)[C@H](CCC(=O)O)NC(=O)[C@H](CC(=O)O)NC3=O)NC1=O)CCCN2C(C)=O` (stereo partly drawn) [I-651, Ac-PL3-Asp-Ile-B5-Asp-Glu-Ser-Ala-Phe-Gln-S8-Phe-BztA-Gln-NH2], the IC50 in data set [1] (setting [2]) and in data set [1] (read-out: FP EC50) was 0.186 µM in each case. The “CHI Log D” value in “CHI Log D procedure” was 2.167. For the same compound, in the data set “Solubility in PBS”, the “Solubility” value was found to be 48 µM (≈ 91.2 µg/mL).

For the origin of these results see US20240116985A1, “STAPLED PEPTIDES AND METHODS THEREOF” (priority 2020, published 2024).
